Measurements reported in ChEMBL document CHEMBL5120778, “Jatrophane Diterpenoids with Kv1.3 Ion Channel Inhibitory Effects from Euphorbia helioscopia” (J Nat Prod, 2022).

Key:
[1] = target: T1, Potassium voltage-gated channel subfamily A member 3 (Homo sapiens, UniProt P22001); assay: Inhibition of human Kv1.3 expressed in HEK293 cells assessed as inhibition of tetracyclin induced current at 30 uM at holding potential of -80 mV by patch clamp method relative to control; type: cell-based
[2] = target: T1, Potassium voltage-gated channel subfamily A member 3; assay: Inhibition of human Kv1.3 expressed in HEK293 cells assessed as inhibition of tetracyclin induced current at 1 uM at holding potential of -80 mV by patch clamp method relative to control; type: cell-based
HEK293 = assay: Cytotoxicity against HEK293 cells assessed as reduction in cell proliferation at 30 uM; type: toxicity, cell-based; conditions: human, hek293, 30 µM
[3] = target: T1, Potassium voltage-gated channel subfamily A member 3; assay: Inhibition of human Kv1.3 expressed in HEK293 cells assessed as inhibition of tetracyclin induced current at holding potential of -80 mV by patch clamp method; type: cell-based

T1 sequence (P22001 whole entry): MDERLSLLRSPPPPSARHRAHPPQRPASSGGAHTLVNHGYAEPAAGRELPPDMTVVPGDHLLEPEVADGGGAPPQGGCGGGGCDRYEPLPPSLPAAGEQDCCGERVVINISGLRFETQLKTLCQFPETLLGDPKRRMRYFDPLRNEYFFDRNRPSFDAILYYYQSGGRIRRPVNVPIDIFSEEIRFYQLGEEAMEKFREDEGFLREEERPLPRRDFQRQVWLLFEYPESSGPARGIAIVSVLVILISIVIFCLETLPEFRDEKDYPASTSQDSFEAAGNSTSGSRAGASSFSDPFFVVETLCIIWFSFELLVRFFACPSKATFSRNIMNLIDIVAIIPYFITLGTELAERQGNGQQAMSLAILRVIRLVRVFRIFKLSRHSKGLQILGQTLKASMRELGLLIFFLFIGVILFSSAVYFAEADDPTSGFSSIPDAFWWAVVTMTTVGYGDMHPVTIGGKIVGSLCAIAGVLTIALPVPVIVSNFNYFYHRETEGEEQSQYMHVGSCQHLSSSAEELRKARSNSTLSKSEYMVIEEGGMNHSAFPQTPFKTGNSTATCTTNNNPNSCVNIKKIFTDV

| Compound | inhibition [1] | inhibition [2] | IC50 [3] | Activity (HEK293) |
| --- | --- | --- | --- | --- |
| CC(=O)O[C@@H]1CC(=O)C(C)(C)/C=C/[C@@H](C)[C@@H](O)[C@@]2(OC(C)=O)C[C@H](C)[C@H](OC(=O)c3ccccc3)[C@@H]2/C=C/1C | 85.4% | 24.6% |  | Non-Toxic |
| Fc1ccc([C@@H]2CCNC[C@H]2COc2ccc3c(c2)OCO3)cc1 [PAROXETINE] | 48.1% |  | 31.9 µM | Non-Toxic |
| CC(=O)O[C@]12C[C@H](C)[C@H](OC(=O)c3ccccc3)[C@@H]1/C=C(\C)[C@H](O)CC(=O)C(C)(C)C/C=C(\C)C2=O | 88.7% | 4.96% |  | Non-Toxic |
| CC(=O)O[C@@H]1[C@H](C)/C=C/C(C)(C)C(=O)C[C@@H](O)/C(C)=C/[C@H]2[C@@H](OC(=O)c3ccccc3)[C@H](C)C[C@]12OC(C)=O | 94.6% | 2.38% |  | Non-Toxic |
| CC(=O)O[C@@H]1[C@H](C)/C=C/C(C)(C)C(=O)C[C@@H](OC(C)=O)/C(CO)=C/[C@H]2[C@@H](OC(=O)c3ccccc3)[C@H](C)C[C@]12OC(C)=O | 97.5% | 5.38% |  | Non-Toxic |
| CC(=O)O[C@@H]1[C@@H](C)/C=C/C(C)(C)[C@H](OC(C)=O)C[C@@H](OC(C)=O)/C(C)=C/[C@H]2[C@@H](OC(=O)c3ccccc3)[C@@H](C)C[C@]12OC(C)=O | 90% | 8.34% |  | Non-Toxic |
| CC(=O)O[C@@H]1C[C@@H](OC(C)=O)C(C)(C)/C=C/[C@H](C)[C@H](OC(C)=O)[C@@]2(O)C[C@H](C)[C@H](OC(=O)c3cccc(O)c3)[C@@H]2/C=C/1C | 74.4% | 6.16% |  | Non-Toxic |
| CC(=O)O[C@@H]1C[C@@H](O)/C(C)=C/[C@H]2[C@@H](OC(=O)c3ccccc3)[C@@H](C)C[C@]2(OC(C)=O)C(=O)/C(C)=C/[C@H](O)C1(C)C | 84.4% | 7.36% |  | Non-Toxic |
| CC(=O)O[C@@H]1C[C@@H](OC(C)=O)C(C)(C)[C@H](O)/C=C(\C)[C@H](OC(C)=O)[C@@]2(OC(C)=O)C[C@H](C)[C@H](OC(=O)c3ccccc3)[C@@H]2/C=C/1C | 93.7% | 50.4% | 0.9 µM | Non-Toxic |
| CC(=O)O[C@@H]1C[C@@H](O)/C(C)=C/[C@H]2[C@@H](OC(=O)c3ccccc3)[C@H](C)C[C@]2(OC(C)=O)C(=O)/C(C)=C/[C@H](O)C1(C)C | 85.6% | 6.06% |  | Non-Toxic |
| CC(=O)O[C@@H]1C[C@@H](OC(C)=O)C(C)(C)/C=C/[C@H](C)[C@H](OC(C)=O)[C@@]2(O)C[C@H](C)[C@H](OC(=O)c3ccccc3)[C@@H]2/C=C/1C [EUPHORNIN] | 88.7% | 8.87% |  | Non-Toxic |
| CC(=O)O[C@]12C[C@@H](C)[C@H](OC(=O)c3ccccc3)[C@@H]1/C=C(\C)[C@H](O)CC(=O)C(C)(C)/C=C/[C@@H](C)[C@H]2O | 93.9% | 13.4% |  | Non-Toxic |
| CC(=O)O[C@@H]1C[C@@H](OC(C)=O)C(C)(C)[C@@H](O)[C@H](O)[C@H](C)[C@H](OC(C)=O)[C@@]2(O)C[C@H](C)[C@H](OC(=O)c3ccccc3)[C@@H]2/C=C/1C | 95.7% | 24.3% |  | Non-Toxic |
| CC(=O)O[C@@H]1C[C@@H](OC(C)=O)C(C)(C)[C@H](O)[C@H]2O[C@@]3(C[C@H](C)[C@H](OC(=O)c4ccccc4)[C@@H]3/C=C/1C)[C@@H](OC(C)=O)[C@H]2C | 96.2% | 21% |  | Non-Toxic |

The next lines start with results.

| inhibition [1] | inhibition [2] | IC50 [3] | Compound | Activity (HEK293) |
| --- | --- | --- | --- | --- |
| 96.9% | 5.94% |  | CC(=O)O[C@@H]1[C@@H](C)/C=C/C(C)(C)C(=O)C[C@@H](OC(C)=O)/C(CO)=C/[C@H]2[C@@H](OC(=O)c3ccccc3)[C@H](C)C[C@]12OC(C)=O | Non-Toxic |
| 89.4% | 4.72% |  | CC(=O)O[C@@H]1CC(=O)/C(C)=C/[C@H]2[C@@H](OC(=O)c3ccccc3)[C@@H](C)C[C@]2(O)[C@@H](OC(C)=O)[C@@H](C)/C=C/C1(C)C | Non-Toxic |
| 90.7% | 5.67% |  | CC(=O)O[C@]12C[C@@H](C)[C@H](OC(=O)c3ccccc3)[C@@H]1/C=C(\C)[C@H](O)CC(=O)C(C)(C)[C@@H](O)/C=C(\C)C2=O | Non-Toxic |
| 98.7% | 30.9% | 6.5 µM | CC(=O)O[C@@H]1[C@H](C)[C@@H](C=C(C)C)C(=O)C[C@@H](OC(=O)c2cccnc2)/C(C)=C/[C@H]2[C@@H](OC(=O)c3ccccc3)[C@H](C)C[C@]12OC(C)=O | Non-Toxic |
| 98.6% | 57% | 0.9 µM | CC(=O)O[C@@H]1C[C@@H](OC(C)=O)C(C)(C)[C@@H](O)/C=C(\C)C(=O)[C@@]2(OC(C)=O)C[C@H](C)[C@H](OC(=O)c3ccccc3)[C@@H]2/C=C/1C | Non-Toxic |
| 97.4% | 21.1% |  | CC(=O)O[C@@H]1C[C@@H](OC(C)=O)C(C)(C)/C=C/[C@H](C)[C@@H](O)[C@@]2(OC(C)=O)C[C@@H](C)[C@H](OC(=O)c3ccccc3)[C@@H]2/C=C/1C | Non-Toxic |
| 95.3% | 10.5% |  | CC(=O)O[C@@H]1[C@H](C)/C=C/C(C)(C)C(=O)C[C@@H](OC(=O)c2cccnc2)/C(C)=C/[C@H]2[C@@H](OC(=O)c3ccccc3)[C@H](C)C[C@]12OC(C)=O | Non-Toxic |
